Source: US10118935B2, “Melampomagnolide B dimers” (priority 2014, dated 2018)

Key:
COLO 205 = experiment: NCI 60 cell line five dose, Colon Cancer
K-562 = experiment: NCI 60 cell line five dose, Leukemia
SF-268 = experiment: NCI 60 cell line five dose, CNS Cancer
OVCAR-4 [1] = tested on: OVCAR-4
NCI-H322M = experiment: NCI 60 cell line five dose, Non-Small Cell Lung Cancer
SK-MEL-2 = experiment: NCI 60 cell line five dose, Melanoma
SF-295 = experiment: NCI 60 cell line five dose, CNS Cancer
SR = experiment: NCI 60 cell line five dose, Leukemia
NCI-H23 = experiment: NCI 60 cell line five dose, Non-Small Cell Lung Cancer
RXF 393 = experiment: NCI 60 cell line five dose, Renal Cancer
OVCAR-4 [2] = experiment: NCI 60 cell line five dose, Ovarian Cancer

C=C1C(=O)O[C@H]2[C@H]1CC/C(COC(=O)CCC(=O)NCCCCCCCCNC(=O)CCC(=O)OC/C1=C/CC[C@@]3(C)O[C@H]3[C@H]3OC(=O)C(=C)[C@@H]3CC1)=C\CC[C@@]1(C)O[C@@H]21 [JVM 2-87, bis(((1aR,7aS,10aS,10bS,E)-1a-Methyl-8-methylene-9-oxo-1a,2,3,6,7,7a,8,9,10a,1b-decahydrooxireno[2′,3′:9,10]cyclodeca[1,2-b]furan-5-yl)methyl)4,4′-(octane-1,8-diylbis(azanediyl))bis(4-oxobutanoate)]
CC50 (ACHN): 34.7 µM | CC50 (HCT-15): 43.2 µM | GI50 (COLO 205): 1.35 µM | TGI (COLO 205): 3.14 µM | CC50 (HOP-92): 6.77 µM | GI50 (K-562): 0.97 µM | TGI (K-562): 12.9 µM | GI50 (SF-268): 3.34 µM | TGI (SF-268): 11.6 µM | CC50 (UACC-62): 8.94 µM | CC50 (OVCAR-3): 5.31 µM | CC50 (LOX IMVI): 5.56 µM | CC50 (OVCAR-4 [1]): 9.38 µM | GI50 (NCI-H322M): 16.3 µM | TGI (NCI-H322M): 31.4 µM | GI50 (SK-MEL-2): 2.25 µM | TGI (SK-MEL-2): 4.59 µM | GI50 (SF-295): 15.1 µM | TGI (SF-295): 29.3 µM | GI50 (HL-60(TB)): 0.63 µM | TGI (HL-60(TB)): 3.12 µM | CC50 (HL-60(TB); read-out: LC50): > 100 µM | CC50 (CCRF-CEM): > 100 µM | CC50 (TK-10): 7.46 µM | GI50 (SR): 0.41 µM | TGI (SR): 2.10 µM | CC50 (SW-620): 7.2 µM | CC50 (SK-MEL-5): 38.4 µM | CC50 (HS 578T): > 100 µM | GI50 (NCI-H23): 2.99 µM | TGI (NCI-H23): 8.25 µM | GI50 (RXF 393): 0.85 µM | TGI (RXF 393): 2.61 µM | CC50 (MDA-MB-231/ATCC): 9.88 µM | CC50 (MDA-MB-435): 7.58 µM | CC50 (A549/ATCC): 89.4 µM | CC50 (DU-145): 6.81 µM | CC50 (SK-OV-3): 47.9 µM | GI50 (OVCAR-4 [2]): 1.64 µM | TGI (OVCAR-4 [2]): 3.92 µM | CC50 (KM12): 53.4 µM | CC50 (OVCAR-8): > 100 µM | CC50 (SK-MEL-28): 6.32 µM | CC50 (786-0): 6.67 µM
